From article PMC3777193, “Diaryl- and triaryl-pyrrole derivatives: inhibitors of the MDM2–p53 and MDMX–p53 protein–protein interactions” (Medchemcomm, 2013)
Where two headings read alike, the source gives them in different places.

Assays:
[1] = biological target: MDM2–p53 (Homo sapiens, UniProt Q00987); test: MDM2–p53 ELISA protein–protein binding assay
[2] = Growth inhibitory activity, A2708 (Table S3); format: cell-based; conditions: read-out: GI50 A2708
From the text: (§1) (2 pictures or pasted objects on this page, not shown here)

[3] = system: A2780-CP70; test: Growth inhibitory activity, A2780-CP70 (Table S3); format: cell-based; conditions: A2780/CP70, read-out: GI50 A2780-CP70
From the text: as §1

[4] = system: HCT116; test: Growth inhibitory activity, HCT116 (Table S3); format: cell-based; conditions: Homo sapiens, HCT-116, read-out: GI50 HCT116
From the text: as §1

[5] = system: HCT116 p53(-/-); test: Growth inhibitory activity, HCT116 p53(-/-) (Table S3); format: cell-based; conditions: Homo sapiens, HCT-116, read-out: GI50 HCT116 p53(-/-)
From the text: as §1

[6] = system: SJSA-1 cells; format: cell-based; conditions: SJSA-1 (MDM2 amplified, p53wt), 5 μM, 4 h
[7] = system: A2780CP70 cells; format: cell-based; conditions: A2780 CP70 (p53 mutant), 0.1, 0.2 and 5 μM, 4 h
[8] = system: SJSA-1; test: Growth inhibitory activity, SJSA-1; conditions: Homo sapiens, SJSA-1, read-out: GI50 SJSA-1
Procedure: (§2) Growth inhibitory activity was determined for selected pyrroles in a panel of cell lines with defined MDM2, MDMX and p53 status (Table 5).

[9] = system: A2780 cells; format: cell-based; conditions: A2780 (p53wt), 0.1, 0.2 and 5 μM, 4 h
[10] = biological target: T1, MDMX–p53 (Homo sapiens, UniProt O15151); test: MDMX–p53 ELISA binding assay; conditions: read-out: MDMX IC50
T1 construct: host or cells: in vitro coupled T7 transcription and rabbit reticulocyte lysate translation
T1 sequence (O15151 1-490): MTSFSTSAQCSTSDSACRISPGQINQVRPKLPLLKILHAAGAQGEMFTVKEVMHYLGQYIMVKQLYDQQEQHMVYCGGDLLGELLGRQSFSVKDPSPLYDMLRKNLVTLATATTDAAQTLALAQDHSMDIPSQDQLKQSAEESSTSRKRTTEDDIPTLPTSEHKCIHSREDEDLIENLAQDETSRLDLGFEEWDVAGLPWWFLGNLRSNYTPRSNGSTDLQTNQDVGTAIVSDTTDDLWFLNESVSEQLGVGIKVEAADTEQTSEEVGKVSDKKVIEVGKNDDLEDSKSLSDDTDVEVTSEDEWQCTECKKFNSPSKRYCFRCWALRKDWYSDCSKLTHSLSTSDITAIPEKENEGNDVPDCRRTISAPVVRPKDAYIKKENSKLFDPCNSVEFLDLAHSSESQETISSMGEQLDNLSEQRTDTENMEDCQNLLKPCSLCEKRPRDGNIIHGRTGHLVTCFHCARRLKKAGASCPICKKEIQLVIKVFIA

[11] = system: SN40R2; test: Growth inhibitory activity, SN40R2; conditions: read-out: GI50 SN40R2
Procedure: as §2

[12] = system: MRK-NU-1; test: Growth inhibitory activity, MRK-NU-1; conditions: Homo sapiens, MRK-nu-1, read-out: GI50 MRK-NU-1
Procedure: as §2

Sequence of MDM2–p53 (Q00987 whole entry): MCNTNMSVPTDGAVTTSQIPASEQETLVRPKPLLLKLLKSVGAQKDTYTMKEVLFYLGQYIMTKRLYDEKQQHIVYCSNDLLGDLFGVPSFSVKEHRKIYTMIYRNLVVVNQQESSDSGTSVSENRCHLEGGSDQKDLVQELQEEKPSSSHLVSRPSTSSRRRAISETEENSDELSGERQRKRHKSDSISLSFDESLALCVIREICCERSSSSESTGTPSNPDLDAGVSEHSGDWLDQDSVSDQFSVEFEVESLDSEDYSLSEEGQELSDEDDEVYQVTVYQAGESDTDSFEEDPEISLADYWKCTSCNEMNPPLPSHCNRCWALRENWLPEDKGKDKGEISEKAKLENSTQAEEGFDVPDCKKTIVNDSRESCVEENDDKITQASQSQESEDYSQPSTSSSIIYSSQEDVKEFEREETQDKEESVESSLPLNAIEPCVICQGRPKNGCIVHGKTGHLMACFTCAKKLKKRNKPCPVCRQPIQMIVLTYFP

## Cc1cc(C=C2C(=O)NC(=S)NC2=O)c(C)n1-c1sc2c(c1C#N)CCCC2 [Compound 3, 2-(3-((4,6-dioxo-2-thioxotetrahydropyrimidin-5(2H)-ylidene)methyl)-2,5-dimethyl-1H-pyrrol-1-yl)-4,5,6,7-tetrahydrobenzo[b]thiophene-3-carbonitrile]
[1]
  IC50: 12.3 µM
[2]
  GI50: 3.9 ± 0.1 µM
[3]
  GI50: 3.9 ± 0.1 µM
[4]
  GI50: 7.8 ± 0.2 µM
[5]
  GI50: 7.7 ± 0.1 µM
[6]
  induction of MDM2, p53, and p21 (Western blot): clearly visible
[7]
  induction of MDM2, p53, and p21 (Western blot): no induction
[8]
  GI50: 4.4 ± 0.1 µM

## Cc1cc(C=C2C(=O)NC(=S)NC2=O)c(C)n1-c1ccc(Cl)cc1 [Compound 4a]
[1]; read-out: MDM2 IC50
  IC50: 0.72 ± 0.1 µM
[2]
  GI50: 3.4 ± 0.2 µM
[3]
  GI50: 4.4 ± 0.2 µM
[4]
  GI50: 8.4 ± 0.5 µM
[5]
  GI50: 8.3 ± 0.4 µM
[8]
  GI50: 3.3 ± 0.1 µM

## Cc1cc(/C=C2\C(=O)NC(=S)N(c3ccccc3)C2=O)c(C)n1-c1ccc(Cl)cc1 [Compound 4b]
[1]; read-out: MDM2 IC50
  IC50: 3.3 ± 0.7 µM
[2]
  GI50: 8.4 ± 0.2 µM
[3]
  GI50: 9.5 ± 0.1 µM
[4]
  GI50: 9.5 ± 0.3 µM
[5]
  GI50: 9.9 ± 0.1 µM
[8]
  GI50: 7.6 ± 0.1 µM

## O=C1NC(=S)N(c2ccccc2)C(=O)/C1=C/c1cc(-c2ccccc2)n(-c2ccc(Cl)cc2)c1-c1ccccc1 [Compound 4d]
[1]
  fold more potent than the comparable 2,5-dimethyl analogues (4a, 4b): 5–10 fold
[1]; read-out: MDM2 IC50
  IC50: 0.23 ± 0.044 µM
[6]
  induction of MDM2, p53, and p21 (Western blot): clearly visible
[9]
  induction of MDM2 and p21 (Western blot): observed
[7]
  induction of MDM2, p53, and p21 (Western blot): no induction

## O=C1NC(=S)N(c2cccc(Cl)c2)C(=O)/C1=C/c1cc(-c2ccccc2)n(-c2ccc(Cl)cc2)c1-c1ccccc1 [Compound 4e]
[1]; read-out: MDM2 IC50
  IC50: 0.163 ± 0.017 µM

## Cc1ccc(N2C(=O)/C(=C\c3cc(-c4ccccc4)n(-c4ccc(Cl)cc4)c3-c3ccccc3)C(=O)N(c3ccccc3)C2=S)cc1C [Compound 4f]
[1]; read-out: MDM2-p53 IC50
  IC50: 0.26 ± 0.04 µM
[1]; read-out: MDM2 IC50
  IC50: 0.256 ± 0.039 µM

## CN1C(=O)C(=Cc2cc(-c3ccccc3)n(-c3ccc(Cl)cc3)c2-c2ccccc2)C(=O)N(C)C1=S [Compound 4g]
[1]
  MDM2-p53 IC50: Insol.
  MDM2 IC50: Insol.

## Cc1cc(C=C2C(=O)N(c3ccccc3)C(=S)N(c3ccccc3)C2=O)c(C)n1-c1ccc(Br)cc1 [Compound 4h]
[1]; read-out: MDM2 IC50
  IC50: 0.199 ± 0.016 µM

## Cc1ccc(-n2c(C)cc(/C=C3\C(=O)NC(=S)N(c4ccccc4)C3=O)c2C)cc1 [Compound 4i]
[1]; read-out: MDM2 IC50
  IC50: 8.4 ± 0.9 µM
[2]
  GI50: 7.5 ± 0.1 µM
[3]
  GI50: 9 ± 0.4 µM
[4]
  GI50: 9.5 ± 0.3 µM
[5]
  GI50: 9.7 ± 0.2 µM
[8]
  GI50: 7.1 ± 0.1 µM

## Cc1ccc(-n2c(C)cc(C=C3C(=O)NC(=S)NC3=O)c2C)cc1 [Compound 4j]
[1]; read-out: MDM2 IC50
  IC50: 4.7 ± 0.2 µM

## CCOC(=O)c1ccc(-n2c(-c3ccccc3)cc(C=C3C(=O)NC(=S)NC3=O)c2-c2ccccc2)cc1 [Compound 4k]
[1]; read-out: MDM2 IC50
  IC50: 0.7 ± 0.02 µM

## O=C1NC(=O)C(=Cc2cc(-c3ccccc3)n(-c3ccc(Cl)cc3)c2-c2ccccc2)C(=O)N1 [Compound 4m]
[1]; read-out: MDM2 IC50
  IC50: 0.3 ± 0.03 µM

## O=C1NC(=O)C(=Cc2cc(-c3ccccc3)n(-c3ccc(Br)cc3)c2-c2ccccc2)C(=O)N1 [Compound 4n]
[1]; read-out: MDM2 IC50
  IC50: 0.18 ± 0.07 µM

## COc1ccc(-n2c(-c3ccccc3)cc(C=C3C(=O)NC(=O)NC3=O)c2-c2ccccc2)cc1 [Compound 4o]
[1]; read-out: MDM2 IC50
  IC50: 1.9 ± 0.3 µM
[10]
  IC50: 13 ± 7 µM

## CC(C)(C)c1ccc(-n2c(-c3ccccc3)cc(C=C3C(=O)NC(=O)NC3=O)c2-c2ccccc2)cc1 [Compound 4p]
[1]; read-out: MDM2 IC50
  IC50: 1.9 ± 0.3 µM

## N#Cc1ccc(-n2c(-c3ccccc3)cc(C=C3C(=O)NC(=O)NC3=O)c2-c2ccccc2)cc1 [Compound 4q]
[1]; read-out: MDM2 IC50
  IC50: 4.7 ± 1.9 µM
[10]
  IC50: 7 ± 3 µM

## N#Cc1ccc(-n2c(-c3ccccc3)cc(C=C3C(=O)NC(=S)NC3=O)c2-c2ccccc2)cc1 [Compound 4r]
[1]; read-out: MDM2 IC50
  IC50: 0.2 ± 0.07 µM
[10]
  IC50: 0.9 ± 0.42 µM
[8]
  GI50: 5.1 ± 0.9 µM
[11]
  GI50: 5.9 ± 0.3 µM
[12]
  GI50: 6.1 ± 0.7 µM

## O=C1NC(=O)C(=Cc2cc(-c3ccccc3)n(-c3ccc([N+](=O)[O-])cc3)c2-c2ccccc2)C(=O)N1 [Compound 4s, 5-((1-(4-nitrophenyl)-2,5-diphenyl-1H-pyrrol-3-yl)methylene)pyrimidine-2,4,6(1H,3H,5H)-trione]
[1]; read-out: MDM2 IC50
  IC50: 0.15 ± 0.06 µM
[10]
  IC50: 0.68 ± 0.18 µM

## O=C1NC(=S)NC(=O)C1=Cc1cc(-c2ccccc2)n(-c2ccc([N+](=O)[O-])cc2)c1-c1ccccc1 [Compound 4t]
[1]; read-out: MDM2 IC50
  IC50: 0.17 ± 0.09 µM
[10]
  IC50: 0.63 ± 0.12 µM
[8]
  GI50: 4.7 ± 1 µM
[11]
  GI50: 5.2 ± 0.4 µM
[12]
  GI50: 4.9 ± 0.6 µM
